The text below walks through data of EP1092438B1, “Pharmaceutical compositions containing growth-hormone inhibitors or their biologically active fragments for the treatment of uterine myomas” (De Leo, Vincenzo, priority 1999, dated 2006).

Molecules are shown by their SMILES.

This data set can be described thus: Routine blood parameters before and after treatment. Type of data set: in vivo. The settings on record: person. From the text:
TABLE 1 Example 1 (patient)

`CC(C)[C@@H]1NC(=O)[C@H](CCCCN)NC(=O)[C@@H](Cc2c[nH]c3ccccc23)NC(=O)[C@H](Cc2ccc(O)cc2)NC(=O)[C@@H](NC(=O)[C@H](N)Cc2ccc3ccccc3c2)CSSC[C@@H](C(=O)N[C@H](C(N)=O)[C@@H](C)O)NC1=O` [Lanreotide]: the routine blood parameters result was “remained unvaried”.
